# In ChEMBL document CHEMBL1828614, “Discovery of a new class of HMG-CoA reductase inhibitor from Polyalthia longifolia as potential lipid lowering agent” (Eur J Med Chem, 2011):
# How the values were obtained:
# Syrian golden hamster [1] = assay: Toxicity in Syrian golden hamster assessed as effect of food intake at 25 mg/kg, po; type: organism-based, Mesocricetus auratus; parameters: dose 25 mg/kg, route oral; details: in vivo
# Syrian golden hamster [2] = assay: Toxicity in Syrian golden hamster assessed as weight gain at 25 mg/kg, po; type: organism-based, Mesocricetus auratus; parameters: dose 25 mg/kg, route oral; details: in vivo
# Syrian golden hamster [3] = assay: Hypolipidemic activity in high fat diet fed Syrian golden hamster assessed as reduction of triglyceride level at 5 mg/kg, po for 7 days; type: functional, Mesocricetus auratus; parameters: scale not given: the % may be the effect or the level left
# Syrian golden hamster [4] = assay: Hypolipidemic activity in high fat diet fed Syrian golden hamster assessed as reduction of triglyceride level at 10 mg/kg, po for 7 days; type: functional, Mesocricetus auratus; parameters: scale not given: the % may be the effect or the level left
# Syrian golden hamster [5] = assay: Hypolipidemic activity in high fat diet fed Syrian golden hamster assessed as reduction of triglyceride level at 25 mg/kg, po for 7 days; type: functional, Mesocricetus auratus; parameters: scale not given: the % may be the effect or the level left
# Syrian golden hamster [6] = assay: Hypolipidemic activity in high fat diet fed Syrian golden hamster assessed as reduction of triglyceride level at 50 mg/kg, po for 7 days; type: functional, Mesocricetus auratus; parameters: scale not given: the % may be the effect or the level left
# Syrian golden hamster [7] = assay: Hypolipidemic activity in high fat diet fed Syrian golden hamster assessed as reduction of triglyceride level at 100 mg/kg, po for 7 days; type: functional, Mesocricetus auratus; parameters: scale not given: the % may be the effect or the level left
# Syrian golden hamster [8] = assay: Hypolipidemic activity in high fat diet fed Syrian golden hamster assessed as reduction of total cholesterol level at 5 mg/kg, po for 7 days; type: functional, Mesocricetus auratus; parameters: scale not given: the % may be the effect or the level left
# Syrian golden hamster [9] = assay: Hypolipidemic activity in high fat diet fed Syrian golden hamster assessed as reduction of total cholesterol level at 10 mg/kg, po for 7 days; type: functional, Mesocricetus auratus; parameters: scale not given: the % may be the effect or the level left
# Syrian golden hamster [10] = assay: Hypolipidemic activity in high fat diet fed Syrian golden hamster assessed as reduction of total cholesterol level at 25 mg/kg, po for 7 days; type: functional, Mesocricetus auratus; parameters: scale not given: the % may be the effect or the level left
# Syrian golden hamster [11] = assay: Hypolipidemic activity in high fat diet fed Syrian golden hamster assessed as reduction of total cholesterol level at 50 mg/kg, po for 7 days; type: functional, Mesocricetus auratus; parameters: scale not given: the % may be the effect or the level left
# Syrian golden hamster [12] = assay: Hypolipidemic activity in high fat diet fed Syrian golden hamster assessed as reduction of total cholesterol level at 100 mg/kg, po for 7 days; type: functional, Mesocricetus auratus; parameters: scale not given: the % may be the effect or the level left
# Syrian golden hamster [13] = assay: Hypolipidemic activity in high fat diet fed Syrian golden hamster assessed as reduction of glycerol level at 5 mg/kg, po for 7 days; type: functional, Mesocricetus auratus; parameters: scale not given: the % may be the effect or the level left
# Syrian golden hamster [14] = assay: Hypolipidemic activity in high fat diet fed Syrian golden hamster assessed as reduction of glycerol level at 10 mg/kg, po for 7 days; type: functional, Mesocricetus auratus; parameters: scale not given: the % may be the effect or the level left
# Syrian golden hamster [15] = assay: Hypolipidemic activity in high fat diet fed Syrian golden hamster assessed as reduction of glycerol level at 25 mg/kg, po for 7 days; type: functional, Mesocricetus auratus; parameters: scale not given: the % may be the effect or the level left
# Syrian golden hamster [16] = assay: Hypolipidemic activity in high fat diet fed Syrian golden hamster assessed as reduction of glycerol level at 50 mg/kg, po for 7 days; type: functional, Mesocricetus auratus; parameters: scale not given: the % may be the effect or the level left
# Syrian golden hamster [17] = assay: Hypolipidemic activity in high fat diet fed Syrian golden hamster assessed as reduction of glycerol level at 100 mg/kg, po for 7 days; type: functional, Mesocricetus auratus; parameters: scale not given: the % may be the effect or the level left
# Syrian golden hamster [18] = assay: Hypolipidemic activity in high fat diet fed Syrian golden hamster assessed as increase in HDL-cholesterol-total cholesterol ratio at 5 mg/kg, po for 7 days; type: functional, Mesocricetus auratus
# Syrian golden hamster [19] = assay: Hypolipidemic activity in high fat diet fed Syrian golden hamster assessed as increase in HDL-cholesterol-total cholesterol ratio at 10 mg/kg, po for 7 days; type: functional, Mesocricetus auratus
# Syrian golden hamster [20] = assay: Hypolipidemic activity in high fat diet fed Syrian golden hamster assessed as increase in HDL-cholesterol-total cholesterol ratio at 25 mg/kg, po for 7 days; type: functional, Mesocricetus auratus
# Syrian golden hamster [21] = assay: Hypolipidemic activity in high fat diet fed Syrian golden hamster assessed as increase in HDL-cholesterol-total cholesterol ratio at 50 mg/kg, po for 7 days; type: functional, Mesocricetus auratus
# Syrian golden hamster [22] = assay: Hypolipidemic activity in high fat diet fed Syrian golden hamster assessed as increase in HDL-cholesterol-total cholesterol ratio at 100 mg/kg, po for 7 days; type: functional, Mesocricetus auratus
# [23] = target: T1, 3-hydroxy-3-methylglutaryl-coenzyme A reductase (Homo sapiens, UniProt P04035); assay: Inhibition of HMG-CoA reductase using HMG-CoA as substrate by spectrophotometry in presence of NADPH
# T1 sequence (P04035 whole entry): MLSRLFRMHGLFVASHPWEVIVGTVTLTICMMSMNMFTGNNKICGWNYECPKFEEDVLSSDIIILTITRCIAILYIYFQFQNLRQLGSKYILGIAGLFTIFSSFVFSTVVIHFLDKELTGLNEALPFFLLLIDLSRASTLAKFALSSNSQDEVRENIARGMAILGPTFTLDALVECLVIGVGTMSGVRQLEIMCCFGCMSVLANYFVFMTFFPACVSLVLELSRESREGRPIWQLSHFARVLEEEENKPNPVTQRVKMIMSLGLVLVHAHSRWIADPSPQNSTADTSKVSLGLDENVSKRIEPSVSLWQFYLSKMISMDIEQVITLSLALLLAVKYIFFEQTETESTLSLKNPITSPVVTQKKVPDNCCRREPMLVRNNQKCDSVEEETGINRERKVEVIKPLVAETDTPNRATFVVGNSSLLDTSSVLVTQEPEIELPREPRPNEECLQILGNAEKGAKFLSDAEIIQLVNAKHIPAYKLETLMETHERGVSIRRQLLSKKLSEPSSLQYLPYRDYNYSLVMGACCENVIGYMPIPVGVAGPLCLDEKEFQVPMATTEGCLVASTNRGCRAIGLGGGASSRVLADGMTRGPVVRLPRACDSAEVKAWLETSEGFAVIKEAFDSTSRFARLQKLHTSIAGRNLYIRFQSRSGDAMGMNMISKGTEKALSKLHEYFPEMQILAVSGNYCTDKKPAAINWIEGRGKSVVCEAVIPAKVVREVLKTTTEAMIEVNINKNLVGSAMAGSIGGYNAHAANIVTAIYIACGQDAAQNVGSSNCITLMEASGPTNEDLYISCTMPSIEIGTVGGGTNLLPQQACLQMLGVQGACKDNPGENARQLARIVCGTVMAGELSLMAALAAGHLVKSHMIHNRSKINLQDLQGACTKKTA
# [24] = Tmax in high fat diet fed Syrian golden hamster at 25 mg/kg, po; type: ADME, organism-based, Mesocricetus auratus; parameters: dose 25 mg/kg, route oral; details: in vivo
# [25] = Cmax in high fat diet fed Syrian golden hamster at 25 mg/kg, po; type: ADME, organism-based, Mesocricetus auratus; parameters: dose 25 mg/kg, route oral; details: in vivo
# [26] = AUC (0 to t) in high fat diet fed Syrian golden hamster at 25 mg/kg, po; type: ADME, organism-based, Mesocricetus auratus; parameters: dose 25 mg/kg, route oral; details: plasma
# Syrian golden hamster [27] = assay: Apparent volume of distribution in high fat diet fed Syrian golden hamster at 25 mg/kg, po; type: ADME, organism-based, Mesocricetus auratus; parameters: dose 25 mg/kg, route oral; details: in vivo
# [28] = Apparent oral clearance in high fat diet fed Syrian golden hamster at 25 mg/kg, po; type: ADME, organism-based, Mesocricetus auratus; parameters: dose 25 mg/kg, route oral; details: in vivo
# [29] = Mean residence time in high fat diet fed Syrian golden hamster at 25 mg/kg, po; type: ADME, organism-based, Mesocricetus auratus; parameters: dose 25 mg/kg, route oral; details: in vivo
compound,measurement,setting,value
CC1=CCC[C@@H]2[C@@](C)(CC/C(C=O)=C\C(=O)O)[C@H](C)CC[C@@]12C,Activity,Syrian golden hamster [1],Non-toxic
same,Activity,Syrian golden hamster [2],Non-toxic
C=C1[C@@H](O)CC[C@@H]2[C@@](C)(CCC3=CC(=O)O[C@@H]3O)[C@H](C)CC[C@@]12C,Activity,Syrian golden hamster [1],Non-toxic
same,Activity,Syrian golden hamster [2],Non-toxic
CC1=CCC[C@@H]2[C@@](C)(CCC3=CC(=O)O[C@@H]3O)[C@H](C)CC[C@@]12C,Activity,Syrian golden hamster [3],19%
same,Activity,Syrian golden hamster [4],26%
same,Activity,Syrian golden hamster [5],45%
same,Activity,Syrian golden hamster [6],46%
same,Activity,Syrian golden hamster [7],43%
same,Activity,Syrian golden hamster [8],27%
same,Activity,Syrian golden hamster [9],23%
same,Activity,Syrian golden hamster [10],41%
same,Activity,Syrian golden hamster [11],55%
same,Activity,Syrian golden hamster [12],54%
same,Activity,Syrian golden hamster [13],10%
same,Activity,Syrian golden hamster [14],5%
same,Activity,Syrian golden hamster [15],37%
same,Activity,Syrian golden hamster [16],48%
same,Activity,Syrian golden hamster [17],43%
same,Ratio,Syrian golden hamster [18],12
same,Ratio,Syrian golden hamster [19],12
same,Ratio,Syrian golden hamster [20],48
same,Ratio,Syrian golden hamster [21],54
same,Ratio,Syrian golden hamster [22],46
same,IC50,[23],30.2 µM
same,Tmax,[24],0.5 h
same,Cmax,[25],2490 ng/mL
same,AUC(0-t),[26],5740 ng·h/mL
same,Vz,Syrian golden hamster [27],17.78 L/kg
same,CL/F,[28],72.5 mL/min/kg
same,MRT,[29],4.52 h
same,Activity,Syrian golden hamster [1],Non-toxic
same,Activity,Syrian golden hamster [2],Non-toxic
CC1=C(C=O)CC2[C@@]1(C)CC[C@@H](C)[C@]2(C)CCC1=CC(=O)O[C@@H]1O (mixture of isomers),Activity,Syrian golden hamster [1],Non-toxic
same,Activity,Syrian golden hamster [2],Non-toxic
CC[C@H](C)C(=O)O[C@H]1C[C@@H](C)C=C2C=C[C@H](C)[C@H](CC[C@@H]3C[C@@H](O)CC(=O)O3)[C@H]21 [LOVASTATIN],Activity,Syrian golden hamster [5],29%
same,Activity,Syrian golden hamster [10],9%
same,Activity,Syrian golden hamster [15],35%
